# Test results taken from patent US20200270232A1, “INHIBITORS OF INTEGRATED STRESS RESPONSE PATHWAY” (Praxis Biotech LLC, priority 2019, published 2020).
# Key:
# ATF4 = ATF4 expression inhibition assay (ATF4 luciferase reporter); assay type: cell-based; conditions: Homo sapiens, HEK-293T; HEK293T cells carrying the ATF4 luciferase reporter, 100 nM thapsigargin (Tg), 3 hours; read-out: ATF4 inhbition IC50
# Description: The ATF4 reporter was prepared by fusing the human full length 5′UTR of ATF4 (NCBI Accession No. BC022088.2) upstream of the firefly luciferase coding sequence lacking the initiator methionine. The fused sequence was cloned into pLenti-EF1a-C-Myc-DDK-IRES-Puro cloning vector (Origen # PS 100085) using standard methods. Virus production was carried out by using Lenti-X™ Packaging Single Shots Protocol (Clonetech #631276). Viral particles were used to transduce HEK293T cells (ATCC # CRL-3216, ATCC Manassas, Va.), which were subsequently selected with puromycin to generate stable cell line. Cells were maintained at 37° C. and 5% CO2 in DMEM-F12 (Hyclone # SH30023.02) supplemented with 10% heat-inactivated fetal bovine serum (Gibco #16000-044), 2 mM L-glutamine (Gibco #25030-081), 100 U/ml penicillin, and 100 μg/ml streptomycin (Gibco #15140-122).
# HEK293T cells carrying the ATF4 luciferase reporter were plated on 96-well plates (Nunc) at 10,000 cells per well. Cells were treated two days after seeding with 100 nM thapsigargin (Tg) (Sigma-Aldrich # T9033) in the presence of different concentrations of selected compounds ranging from 1 nM to 10 μM. Cells without treatment or cells treated with Tg alone were used as controls. Assay plates containing cells were incubated for 3 hours at 37° C.
# Luciferase reactions were performed using Luciferase Assay System (Promega # E1501) as specified by the manufacturer. Luminescence was read with an integration time of 1 s and a gain of 110 using a Cytation-5 multi-mode microplate reader (BioTek). Relative luminescence units were normalized to Tg treatment (0% inhibition) and untreated cells (100% inhibition) and the percentage of ATF4 inhibition was calculated.
# Accordingly, inhibition of ATF4 expression as a result of the test compound indicates suppression of the ISR pathway.
# [1] = system: Chinese hamster ovary (CHO) cells; experiment: Protein translation assay (puromycin labelling, western blot); assay type: cell-based; conditions: 2 hours, media alone = 100%; for activity at 1 µM: Cricetulus griseus, unstressed CHO cells (without Tg), 1 μM test compound, read-out: % Protein synthesis relative to untreated (1 μM test compound); for % Recovery of protein synthesis (1 μM test compound): stressed CHO cells, 300 nM Tg, Tg alone = 0%
# Description: Chinese hamster ovary (CHO) cells were maintained at 37° C. and 5% C02 in Dulbecco's Modified Eagle's Media (DMEM) supplemented with 10% fetal bovine serum, 2 mM L-glutamine, 100 U/ml penicillin, and 100 μg/ml streptomycin. After reaching 80% of confluence, cells were detached and seeded on 6 well plates in complete media, allowed to recover overnight and treated for 2 hours with 1 μM of the test compound (to assess protein synthesis levels in unstressed condition), or for 2 hours with 300 nM Tg in the presence of 1 μM of the test compound (to assess the recovery of protein synthesis in a stressed condition). Cells with Tg alone were used as controls.
# After the 2 hours treatments, media were replaced by adding 10 μg/ml puromycin (Sigma Aldrich # P8833) in complete media for 30 min. Media were removed and cells were lysed with SDS-PAGE lysis buffer. Lysates were transferred to 1.5 ml tubes and sonicated for 3 min and total protein amount were quantified using BCA Protein Assay Kit (Pierce). Equal amount of protein (30 μg) was loaded on SDS-PAGE gels. Proteins were transferred onto 0.2 μm PVDF membranes (BioRad) and probed with primary antibodies diluted in Tris-buffered saline supplemented with 0.1% Tween 20 (Merck # S6996184 505) and 3% bovine serum albumin (Rockland # BSA-50).
# Puromycin (12D10) (Merck # MABE343) and β-actin (Sigma Aldrich # A5441) antibodies were used as primary antibody. A HRP-conjugated secondary antibody (Rockland) was employed to detect immune-reactive bands using enhanced chemiluminescence (ECL Western Blotting Substrate, Pierce). Quantification of protein bands was done by densitometry using ImageJ software.
# Percent increase of protein synthesis in unstressed cells (without Tg treatment) in the presence of media alone or certain test compounds is shown in Table 3. The percentage levels were normalized to the media alone condition, which correspond to 100% protein synthesis.
# Percent recovery of protein synthesis in stressed cells (with Tg treatment) due to the test compounds at 1 μM is also shown in Table 3. The levels were normalized to the media alone and Tg alone conditions, which correspond to 100% and 0% respectively.
Compound,IC50 (ATF4) [nM],activity at 1 µM [1] [%],% Recovery of protein synthesis (1 μM test compound) [1] [%]
"O=C(COc1ccc(Cl)c(F)c1)N[C@H]1CC[C@H](NC(=O)COc2ccc(Cl)c(F)c2)C1 [Compound 1, N,N′-((1S,3S)-cyclopentane-1,3-diyl)bis(2-(4-chloro-3-fluorophenoxy)acetamide)]",856,46.9,
"O=C(COc1ccc(Cl)c(F)c1)N[C@H]1CC[C@@H](NCC(O)COc2ccc(Cl)c(F)c2)C1 (stereo partly drawn) [Compound 2, 2-(4-chloro-3-fluorophenoxy)-N-((1S,3R)-3-((3-(4-chloro-3-fluorophenoxy)-2-hydroxypropyl)amino)cyclopentyl)acetamide]",> 1000,84.7,28.2
"O=C(N[C@H]1CC[C@@H](NCC(O)COc2ccc(Cl)c(F)c2)C1)c1ccc2cc(Cl)ccc2n1 (stereo partly drawn) [Compound 3, 6-chloro-N-((1S,3R)-3-((3-(4-chloro-3-fluorophenoxy)-2-hydroxypropyl)amino)cyclopentyl)quinoline-2-carboxamide]",249,176,286
"O=C(COc1ccc(Cl)c(F)c1)NCC1CCN(C(=O)COc2ccc(Cl)c(F)c2)C1 (stereo not shown) [Compound 4, 2-(4-chloro-3-fluorophenoxy)-N-((1-(2-(4-chloro-3-fluorophenoxy)acetyl)pyrrolidin-3-yl)methyl)acetamide]",> 100,76.1,
"O=C(COc1ccc(Cl)c(F)c1)NCC1CCN(C(=O)c2ccc3cc(Cl)ccc3n2)C1 (stereo not shown) [Compound 5, 2-(4-chloro-3-fluorophenoxy)-N-((1-(6-chloroquinoline-2-carbonyl)pyrrolidin-3-yl)methyl)acetamide]",> 100,94.2,0.00
"O=C(COc1ccc(Cl)c(F)c1)NCC1CCN(C(=O)c2cc3cc(Cl)ccc3o2)C1 (stereo not shown) [Compound 6, 2-(4-chloro-3-fluorophenoxy)-N-((1-(5-chlorobenzofuran-2-carbonyl)pyrrolidin-3-yl)methyl)acetamide]",> 100,81.2,0.00
"O=C(COc1ccc(Cl)c(F)c1)NCC1CCN(CC(O)COc2ccc(Cl)c(F)c2)C1 (stereo not shown) [Compound 7, 2-(4-chloro-3-fluorophenoxy)-N-((1-(3-(4-chloro-3-fluorophenoxy)-2-hydroxypropyl)pyrrolidin-3-yl)methyl)acetamide]",> 100,122,
"O=C(NCC1CCN(CC(O)COc2ccc(Cl)c(F)c2)C1)c1cc2cc(Cl)ccc2o1 (stereo not shown) [Compound 8, 5-chloro-N-((1-(3-(4-chloro-3-fluorophenoxy)-2-hydroxypropyl)pyrrolidin-3-yl)methyl)benzofuran-2-carboxamide]",> 1000,107,31.57
"O=C(COc1ccc(Cl)c(F)c1)NCC1CCN(NC(=O)c2cc3cc(Cl)ccc3o2)C1 (stereo not shown) [Compound 12, 5-chloro-N-(3-((2-(4-chloro-3-fluorophenoxy)acetamido)methyl)pyrrolidin-1-yl)benzofuran-2-carboxamide]",3.58,97.7,13
"O=C(N[C@H]1CC[C@H](NCC(O)COc2ccc(Cl)c(F)c2)C1)c1ccc2cc(Cl)ccc2n1 (stereo partly drawn) [Compound 13, 6-chloro-N-((1S,3S)-3-((3-(4-chloro-3-fluorophenoxy)-2-hydroxypropyl)amino)cyclopentyl)quinoline-2-carboxamide]",> 100,288,161.6
"O=C(COc1ccc(Cl)c(F)c1)N[C@H]1CC[C@H](NC(=O)c2cc3cc(Cl)ccc3o2)C1 [Compound 14, 5-chloro-N-((1S,3S)-3-(2-(4-chloro-3-fluorophenoxy)acetamido)cyclopentyl)benzofuran-2-carboxamide]",217,65.9,
"O=C(COc1ccc(Cl)c(F)c1)N[C@@H]1CC[C@H](NC(=O)COc2ccc(Cl)c(F)c2)C1 [Compound 15, N,N′-((1R,3S)-cyclopentane-1,3-diyl)bis(2-(4-chloro-3-fluorophenoxy)acetamide)]",> 100,110,
"O=C(COc1ccc(Cl)c(F)c1)N[C@H]1CC[C@H](NC(=O)c2ccc3cc(Cl)ccc3n2)C1 [Compound 16, 6-chloro-N-((1S,3S)-3-(2-(4-chloro-3-fluorophenoxy)acetamido)cyclopentyl)quinoline-2-carboxamide]",134,95.4,

# Now from value to compound, other results behind:
IC50 (ATF4) [nM],Compound,activity at 1 µM [1] [%],% Recovery of protein synthesis (1 μM test compound) [1] [%]
102,"O=C(COc1ccc(Cl)c(F)c1)N[C@@H]1CC[C@H](NC(=O)c2cc3cc(Cl)ccc3o2)C1 [Compound 17, 5-chloro-N-((1S,3R)-3-(2-(4-chloro-3-fluorophenoxy)acetamido)cyclopentyl)benzofuran-2-carboxamide]",78.4,22
178,"O=C(N[C@H]1CC[C@H](NCC(O)COc2ccc(Cl)c(F)c2)C1)c1cc2cc(Cl)ccc2o1 (stereo partly drawn) [Compound 18, 5-chloro-N-((1S,3S)-3-((3-(4-chloro-3-fluorophenoxy)-2-hydroxypropyl)amino)cyclopentyl)benzofuran-2-carboxamide]",158,
> 100,"O=C(COc1ccc(Cl)c(F)c1)N[C@@H]1CC[C@H](NC(=O)c2ccc3cc(Cl)ccc3n2)C1 [Compound 19, 6-chloro-N-((1S,3R)-3-(2-(4-chloro-3-fluorophenoxy)acetamido)cyclopentyl)quinoline-2-carboxamide]",76.1,
> 100,"O=C(COc1ccc(Cl)c(F)c1)N[C@H]1CC[C@H](NCC(O)COc2ccc(Cl)c(F)c2)C1 (stereo partly drawn) [Compound 20, 2-(4-chloro-3-fluorophenoxy)-N-((1S,3S)-3-((3-(4-chloro-3-fluorophenoxy)-2-hydroxypropyl)amino)cyclopentyl)acetamide]",123,52.5
> 1000,"O=C(N[C@H]1CC[C@@H](NCC(O)COc2ccc(Cl)c(F)c2)C1)c1cc2cc(Cl)ccc2o1 (stereo partly drawn) [Compound 21, 5-chloro-N-((1S,3R)-3-((3-(4-chloro-3-fluorophenoxy)-2-hydroxypropyl)amino)cyclopentyl)benzofuran-2-carboxamide]",141,54.6
> 1000,"O=C(NCC1CCC(NCC(O)COc2ccc(Cl)c(F)c2)C1)c1cc2cc(Cl)ccc2o1 (stereo not shown) [Compound 33, 5-chloro-N-((3-((3-(4-chloro-3-fluorophenoxy)-2-hydroxypropyl)amino)cyclopentyl)methyl)benzofuran-2-carboxamide]",147,101.1
> 1000,"O=C(NCC1CCC(NCC(O)COc2ccc(Cl)c(F)c2)C1)c1ccc2cc(Cl)ccc2n1 (stereo not shown) [Compound 34, 6-chloro-N-((3-((3-(4-chloro-3-fluorophenoxy)-2-hydroxypropyl)amino)cyclopentyl)methyl)quinoline-2-carboxamide]",166,122.6
